Results reported in article PMC11649115, “In vitro safety evaluation of dopamine D3R antagonist, R-VK4-116, as a potential medication for the treatment of opioid use disorder” (PLOS ONE, 2024).

Legend:
CYP1A2 = assay: CYP induction, in situ catalytic activity, human hepatocytes; assay type: in vitro ADME
CYP3A4 = assay: as above; assay type: in vitro ADME
OAT3 = target: T1, OAT3 (Homo sapiens, UniProt Q8TCC7); assay: Transporter mediated assay (substrate/inhibitor), MDCK-II cells; assay type: in vitro ADME
T1 construct: expressed in transfected cells; host or cells: MDCK-II cells
T1 sequence (Q8TCC7 1-542): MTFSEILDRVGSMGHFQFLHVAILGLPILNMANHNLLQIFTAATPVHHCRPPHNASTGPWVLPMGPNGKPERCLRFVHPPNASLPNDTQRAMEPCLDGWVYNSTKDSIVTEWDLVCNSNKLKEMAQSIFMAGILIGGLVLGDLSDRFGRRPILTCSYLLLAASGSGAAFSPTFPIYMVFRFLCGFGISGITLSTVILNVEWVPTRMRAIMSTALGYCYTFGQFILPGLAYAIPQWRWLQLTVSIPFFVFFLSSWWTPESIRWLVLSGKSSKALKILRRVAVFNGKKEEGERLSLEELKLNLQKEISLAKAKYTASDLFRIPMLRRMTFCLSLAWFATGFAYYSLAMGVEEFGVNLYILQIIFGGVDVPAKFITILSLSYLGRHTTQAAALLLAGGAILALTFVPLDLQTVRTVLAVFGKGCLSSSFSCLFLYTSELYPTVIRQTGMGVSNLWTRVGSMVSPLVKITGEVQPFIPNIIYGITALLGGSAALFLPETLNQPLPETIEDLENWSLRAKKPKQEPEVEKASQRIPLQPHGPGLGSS
Protocol: The MDCK-II cells were treated to express the transporter of interest. The transport of each probe substrate was determined by radiometric detection (Fig 1 in S1 File). […] For the uptake assay, the net transporter-mediated uptake-rate (V) of the substrate by each SLC transporter was calculated as follows: Transporter–mediatedupdaterate(pmol/min/cm^2)=(Cellularaccumulationincellsexpressingthetransporter)−(Meancellularaccumulationincontrolcells)/Surfacearea×incubationtime
Fold of activity and percent inhibition were determined as follows: Foldofactivity=(Meanuptakerate)transporterexpressingcells/(Meanuptakerate)controlcells Percentinhibition=100−100×(Transport‐mediatedupdaterate)withinhibitor/(Transport‐mediatedupdaterate)vehiclecontrol

5-HT2B(h) = target: T2, 5-HT2B(h) (Homo sapiens, UniProt P41595); assay: Cellular and nuclear receptor functional assay, antagonist effect; assay type: cell-based; conditions: 10 μM
T2 construct: Eurofins Cerep (France) and Eurofins Discovery (St. Charles, MO)
Protocol: (§1) The purpose of this study was to provide a first step in preliminary safety assessments by providing early identification of potential off-target interactions for the optimization of safety margins. This study was conducted by Eurofins Cerep (France) and Eurofins Discovery (St. Charles, MO). R-VK4-116 was tested in enzyme and uptake assay with 10 enzyme targets (Figs 4 and 5 in S1 File), and cellular and nuclear receptor functional assays with 24 receptor targets (Figs 5 and 6 in S1 File). Compound enzyme inhibition effect was calculated as a % inhibition of control enzyme activity. The cellular agonist effect was calculated as a % of the control response to a known reference agonist for each target, and the cellular antagonist effect was calculated as a % inhibition of the control reference agonist response for each target.

H1(h) = target: T3, H1(h) (Homo sapiens, UniProt P35367); assay: as above; assay type: cell-based
T3 construct: Eurofins Cerep (France) and Eurofins Discovery (St. Charles, MO)
Protocol: as §1

V1a(h) = target: T4, V1a(h) (Homo sapiens, UniProt P37288); assay: as above; assay type: cell-based; conditions: 10 μM
T4 construct: Eurofins Cerep (France) and Eurofins Discovery (St. Charles, MO)
Protocol: as §1

α1A(h) = target: T5, α1A(h) (Homo sapiens, UniProt P35348); assay: as above; assay type: cell-based
T5 construct: Eurofins Cerep (France) and Eurofins Discovery (St. Charles, MO)
Protocol: as §1

hGABAA∞1β2γ2 = target: T6, hGABAA∞1β2γ2 (Homo sapiens, UniProt P14867+P18507+P47870); assay: IonFlux HT electrophysiological assay; assay type: cell-based; conditions: 10 μM
T6 construct: Eurofins Cerep (France) and Eurofins Discovery (St. Charles, MO)
Protocol: Electrophysiological assays were also conducted to profile R-VK4-116 for activities on ion channel targets. The QPatch HT (patch clamp) measured the agonist or antagonist activity of R-VK4-116 on ion channels. For these assays, the voltage was used as the ligand to activate the channel and induce a measurable current. The IonFlux HT measured the agonist, antagonist, or PAM activity of R-VK4-116 on ligand-gated ion channels. For these assays, GABA or Acetylcholine (ACh) was used as the ligand to activate the channel and induce measurable current. The six ion channels tested at 10 μM of R-VK4-116 in replicate were hNav1.5 Peak, hERG, hKCNQ1/minK, hCav1.2, hGABAA∞1/β2g2 and hnAChR∞4/β2.

T3 sequence (P35367 whole entry): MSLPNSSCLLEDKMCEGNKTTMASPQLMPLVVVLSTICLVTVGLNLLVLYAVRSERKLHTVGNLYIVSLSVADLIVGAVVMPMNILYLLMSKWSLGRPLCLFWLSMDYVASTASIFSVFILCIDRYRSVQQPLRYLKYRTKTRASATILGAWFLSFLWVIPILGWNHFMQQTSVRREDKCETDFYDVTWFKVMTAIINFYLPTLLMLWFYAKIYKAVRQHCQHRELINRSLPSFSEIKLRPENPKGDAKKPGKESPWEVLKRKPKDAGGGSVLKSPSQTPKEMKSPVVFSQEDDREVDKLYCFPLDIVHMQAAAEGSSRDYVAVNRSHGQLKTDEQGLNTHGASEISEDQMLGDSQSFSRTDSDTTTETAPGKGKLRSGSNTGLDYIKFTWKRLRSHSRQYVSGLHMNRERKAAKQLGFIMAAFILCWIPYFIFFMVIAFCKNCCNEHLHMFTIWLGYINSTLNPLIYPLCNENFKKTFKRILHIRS
T6 sequence (P14867 28-456): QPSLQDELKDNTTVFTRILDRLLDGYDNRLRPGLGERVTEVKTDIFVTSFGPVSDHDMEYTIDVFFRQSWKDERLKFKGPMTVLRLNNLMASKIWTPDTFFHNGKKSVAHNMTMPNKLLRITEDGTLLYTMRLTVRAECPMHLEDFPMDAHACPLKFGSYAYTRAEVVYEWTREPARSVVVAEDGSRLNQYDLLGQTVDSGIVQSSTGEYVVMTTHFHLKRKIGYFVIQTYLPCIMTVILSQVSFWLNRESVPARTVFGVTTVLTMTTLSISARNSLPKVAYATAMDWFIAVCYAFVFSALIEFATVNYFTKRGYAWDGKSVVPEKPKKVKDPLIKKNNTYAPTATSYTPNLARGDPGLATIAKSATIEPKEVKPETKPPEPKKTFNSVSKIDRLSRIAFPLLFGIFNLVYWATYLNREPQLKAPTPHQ
T6 sequence (P47870 25-512 limits assumed): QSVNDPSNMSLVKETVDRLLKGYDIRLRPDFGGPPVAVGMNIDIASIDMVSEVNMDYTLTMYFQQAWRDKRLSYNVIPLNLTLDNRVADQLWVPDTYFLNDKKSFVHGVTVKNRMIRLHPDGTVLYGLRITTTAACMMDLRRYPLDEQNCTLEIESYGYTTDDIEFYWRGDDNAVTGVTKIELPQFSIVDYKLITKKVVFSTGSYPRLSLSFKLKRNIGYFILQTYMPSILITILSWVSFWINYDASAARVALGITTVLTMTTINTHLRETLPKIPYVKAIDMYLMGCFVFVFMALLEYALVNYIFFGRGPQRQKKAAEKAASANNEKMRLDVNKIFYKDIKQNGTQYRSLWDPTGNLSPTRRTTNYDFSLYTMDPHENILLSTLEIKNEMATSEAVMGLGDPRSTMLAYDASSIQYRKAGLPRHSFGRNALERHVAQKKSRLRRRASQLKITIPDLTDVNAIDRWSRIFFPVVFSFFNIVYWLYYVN
T6 sequence (P18507 40-475): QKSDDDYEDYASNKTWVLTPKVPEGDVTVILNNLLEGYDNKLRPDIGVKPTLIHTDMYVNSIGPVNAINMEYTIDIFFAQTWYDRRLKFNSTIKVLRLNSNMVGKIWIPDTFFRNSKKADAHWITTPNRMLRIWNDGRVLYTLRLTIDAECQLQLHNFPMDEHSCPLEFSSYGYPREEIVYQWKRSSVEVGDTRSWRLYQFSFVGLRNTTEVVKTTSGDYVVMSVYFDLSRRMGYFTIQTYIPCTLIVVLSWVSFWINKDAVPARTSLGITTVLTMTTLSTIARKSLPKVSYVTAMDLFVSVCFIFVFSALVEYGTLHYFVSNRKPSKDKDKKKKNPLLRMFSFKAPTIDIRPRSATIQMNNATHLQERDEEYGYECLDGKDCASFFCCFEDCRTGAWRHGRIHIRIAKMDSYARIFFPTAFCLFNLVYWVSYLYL
T4 sequence (P37288 whole entry): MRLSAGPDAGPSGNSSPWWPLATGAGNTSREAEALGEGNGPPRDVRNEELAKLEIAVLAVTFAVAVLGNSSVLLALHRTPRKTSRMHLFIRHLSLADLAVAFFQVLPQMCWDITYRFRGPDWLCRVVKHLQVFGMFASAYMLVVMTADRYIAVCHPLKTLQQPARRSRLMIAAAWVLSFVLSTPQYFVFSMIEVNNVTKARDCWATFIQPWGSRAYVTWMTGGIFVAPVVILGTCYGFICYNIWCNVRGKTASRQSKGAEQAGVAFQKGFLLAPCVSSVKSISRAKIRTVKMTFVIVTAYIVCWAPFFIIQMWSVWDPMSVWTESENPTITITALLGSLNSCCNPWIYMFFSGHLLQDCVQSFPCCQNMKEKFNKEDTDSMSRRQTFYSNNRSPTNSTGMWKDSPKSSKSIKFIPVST
T5 sequence (P35348 whole entry): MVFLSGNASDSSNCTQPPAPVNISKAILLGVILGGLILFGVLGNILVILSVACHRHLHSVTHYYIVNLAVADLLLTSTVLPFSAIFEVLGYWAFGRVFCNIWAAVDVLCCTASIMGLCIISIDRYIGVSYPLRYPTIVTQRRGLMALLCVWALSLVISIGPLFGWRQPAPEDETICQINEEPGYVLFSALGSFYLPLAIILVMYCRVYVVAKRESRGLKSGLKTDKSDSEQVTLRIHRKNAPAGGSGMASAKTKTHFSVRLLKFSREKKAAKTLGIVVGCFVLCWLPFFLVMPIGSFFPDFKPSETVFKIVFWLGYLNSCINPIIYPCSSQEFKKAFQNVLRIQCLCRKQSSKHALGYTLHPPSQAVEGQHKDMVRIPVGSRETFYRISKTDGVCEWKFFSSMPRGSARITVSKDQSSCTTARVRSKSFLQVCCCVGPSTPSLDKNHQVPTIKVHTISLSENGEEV
T2 sequence (P41595 whole entry): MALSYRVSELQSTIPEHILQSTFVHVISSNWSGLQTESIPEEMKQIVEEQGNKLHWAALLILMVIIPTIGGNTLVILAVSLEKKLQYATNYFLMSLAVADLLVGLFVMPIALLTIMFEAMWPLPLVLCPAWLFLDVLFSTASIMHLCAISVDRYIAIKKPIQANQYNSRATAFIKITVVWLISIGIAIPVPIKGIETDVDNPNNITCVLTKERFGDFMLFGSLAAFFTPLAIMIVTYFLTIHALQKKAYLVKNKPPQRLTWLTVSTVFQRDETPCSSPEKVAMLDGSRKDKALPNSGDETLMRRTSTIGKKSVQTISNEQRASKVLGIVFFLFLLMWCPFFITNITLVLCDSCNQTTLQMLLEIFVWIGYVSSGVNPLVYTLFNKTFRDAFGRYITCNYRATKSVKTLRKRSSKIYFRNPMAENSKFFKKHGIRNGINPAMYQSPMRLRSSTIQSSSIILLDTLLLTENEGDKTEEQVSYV

CCc1cc(Cl)c(OC)c(N2CCN(CC(O)CCNC(=O)c3cc4ccccc4[nH]3)CC2)c1 (stereo not shown) [R-VK4-116, N-(4-(4-(3-chloro-5-ethyl-2-methoxyphenyl)piperazin-1-yl)-3-hydroxybutyl)-1H-indole-2-carboxamide]
CYP1A2 activity, Fold of Vehicle Control (CYP1A2; Lot 336, 0.01 µM): 0.96 fold | Phenacetin-O- deethylation (CYP1A2; Lot 336, 0.01 µM): 1.1 pmol/min/106 cells | CYP1A2 activity, Fold of Vehicle Control (CYP1A2; Lot 336, 0.1 µM): 0.96 fold | Phenacetin-O- deethylation (CYP1A2; Lot 336, 0.1 µM): 1.1 pmol/min/106 cells | CYP1A2 activity, Fold of Vehicle Control (CYP1A2; Lot 336, 1 µM): 1.2 fold | Phenacetin-O- deethylation (CYP1A2; Lot 336, 1 µM): 1.4 pmol/min/106 cells | CYP1A2 activity, Fold of Vehicle Control (CYP1A2; Lot 336, 3 µM): 1.5 fold | Phenacetin-O- deethylation (CYP1A2; Lot 336, 3 µM): 1.8 pmol/min/106 cells | CYP1A2 activity, Fold of Vehicle Control (CYP1A2; Lot 336, 5 µM): 1.6 fold | Phenacetin-O- deethylation (CYP1A2; Lot 336, 5 µM): 1.8 pmol/min/106 cells | CYP1A2 activity, Fold of Vehicle Control (CYP1A2; Lot 336, 10 µM): 1.5 fold | CYP1A2 activity, Fold of Vehicle Control (CYP1A2; Lot 348B, 0.01 µM): 0.92 fold | CYP1A2 activity, Fold of Vehicle Control (CYP1A2; Lot 348B, 0.1 µM): 0.91 fold | CYP1A2 activity, Fold of Vehicle Control (CYP1A2; Lot 348B, 1 µM): 0.99 fold | CYP1A2 activity, Fold of Vehicle Control (CYP1A2; Lot 348B, 3 µM): 1.1 fold | CYP1A2 activity, Fold of Vehicle Control (CYP1A2; Lot 348B, 5 µM): 1.1 fold | CYP1A2 activity, Fold of Vehicle Control (CYP1A2; Lot 348B, 10 µM): 1.1 fold | CYP1A2 activity, Fold of Vehicle Control (CYP1A2; Lot 399, 0.01 µM): 1.1 fold | Phenacetin-O- deethylation (CYP1A2; Lot 399, 0.01 µM): 8.8 pmol/min/106 cells | CYP1A2 activity, Fold of Vehicle Control (CYP1A2; Lot 399, 0.1 µM): 1.1 fold | Phenacetin-O- deethylation (CYP1A2; Lot 399, 0.1 µM): 9.4 pmol/min/106 cells | CYP1A2 activity, Fold of Vehicle Control (CYP1A2; Lot 399, 1 µM): 1.1 fold | Phenacetin-O- deethylation (CYP1A2; Lot 399, 1 µM): 9.3 pmol/min/106 cells | CYP1A2 activity, Fold of Vehicle Control (CYP1A2; Lot 399, 3 µM): 1.2 fold | Phenacetin-O- deethylation (CYP1A2; Lot 399, 3 µM): 9.8 pmol/min/106 cells | CYP1A2 activity, Fold of Vehicle Control (CYP1A2; Lot 399, 5 µM): 1.2 fold | Phenacetin-O- deethylation (CYP1A2; Lot 399, 5 µM): 10 pmol/min/106 cells | CYP1A2 activity, Fold of Vehicle Control (CYP1A2; Lot 399, 10 µM): 1.1 fold | Phenacetin-O- deethylation (CYP1A2; Lot 399, 10 µM): 9.0 pmol/min/106 cells | CYP3A4 activity (CYP3A4; 0.01 to 10 μM): did not increase | Fold of Vehicle Control (CYP3A4 activity, testosterone-6β-hydroxylation) (CYP3A4; hepatocyte Lot 336, 0.01 µM): 0.96 fold | Testosterone-6β- Hydroxylation (CYP3A4; hepatocyte Lot 336, 0.01 µM): 9.1 pmol/min/106 cells | Fold of Vehicle Control (CYP3A4 activity, testosterone-6β-hydroxylation) (CYP3A4; hepatocyte Lot 336, 0.1 µM): 0.80 fold | Testosterone-6β- Hydroxylation (CYP3A4; hepatocyte Lot 336, 0.1 µM): 7.5 pmol/min/106 cells | Fold of Vehicle Control (CYP3A4 activity, testosterone-6β-hydroxylation) (CYP3A4; hepatocyte Lot 336, 1 µM): 0.66 fold | Testosterone-6β- Hydroxylation (CYP3A4; hepatocyte Lot 336, 1 µM): 6.3 pmol/min/106 cells | Fold of Vehicle Control (CYP3A4 activity, testosterone-6β-hydroxylation) (CYP3A4; hepatocyte Lot 336, 3 µM): 0.63 fold | Testosterone-6β- Hydroxylation (CYP3A4; hepatocyte Lot 336, 3 µM): 5.9 pmol/min/106 cells | Fold of Vehicle Control (CYP3A4 activity, testosterone-6β-hydroxylation) (CYP3A4; hepatocyte Lot 336, 5 µM): 0.64 fold | Testosterone-6β- Hydroxylation (CYP3A4; hepatocyte Lot 336, 5 µM): 6.1 pmol/min/106 cells | Fold of Vehicle Control (CYP3A4 activity, testosterone-6β-hydroxylation) (CYP3A4; hepatocyte Lot 336, 10 µM): 0.55 fold | Fold of Vehicle Control (CYP3A4 activity, testosterone-6β-hydroxylation) (CYP3A4; hepatocyte Lot 348B, 0.01 µM): 1.0 fold | Fold of Vehicle Control (CYP3A4 activity, testosterone-6β-hydroxylation) (CYP3A4; hepatocyte Lot 348B, 0.1 µM): 1.0 fold | Fold of Vehicle Control (CYP3A4 activity, testosterone-6β-hydroxylation) (CYP3A4; hepatocyte Lot 348B, 1 µM): 0.70 fold | Fold of Vehicle Control (CYP3A4 activity, testosterone-6β-hydroxylation) (CYP3A4; hepatocyte Lot 348B, 3 µM): 0.56 fold | Fold of Vehicle Control (CYP3A4 activity, testosterone-6β-hydroxylation) (CYP3A4; hepatocyte Lot 348B, 5 µM): 0.56 fold | Fold of Vehicle Control (CYP3A4 activity, testosterone-6β-hydroxylation) (CYP3A4; hepatocyte Lot 348B, 10 µM): 0.49 fold | Fold of Vehicle Control (CYP3A4 activity, testosterone-6β-hydroxylation) (CYP3A4; hepatocyte Lot 399, 0.01 µM): 1.0 fold | Testosterone-6β- Hydroxylation (CYP3A4; hepatocyte Lot 399, 0.01 µM): 58 pmol/min/106 cells | Fold of Vehicle Control (CYP3A4 activity, testosterone-6β-hydroxylation) (CYP3A4; hepatocyte Lot 399, 0.1 µM): 0.89 fold | Testosterone-6β- Hydroxylation (CYP3A4; hepatocyte Lot 399, 0.1 µM): 49 pmol/min/106 cells | Fold of Vehicle Control (CYP3A4 activity, testosterone-6β-hydroxylation) (CYP3A4; hepatocyte Lot 399, 1 µM): 0.45 fold | Testosterone-6β- Hydroxylation (CYP3A4; hepatocyte Lot 399, 1 µM): 25 pmol/min/106 cells | Fold of Vehicle Control (CYP3A4 activity, testosterone-6β-hydroxylation) (CYP3A4; hepatocyte Lot 399, 3 µM): 0.32 fold | Testosterone-6β- Hydroxylation (CYP3A4; hepatocyte Lot 399, 3 µM): 18 pmol/min/106 cells | Fold of Vehicle Control (CYP3A4 activity, testosterone-6β-hydroxylation) (CYP3A4; hepatocyte Lot 399, 5 µM): 0.30 fold | Testosterone-6β- Hydroxylation (CYP3A4; hepatocyte Lot 399, 5 µM): 16 pmol/min/106 cells | Fold of Vehicle Control (CYP3A4 activity, testosterone-6β-hydroxylation) (CYP3A4; hepatocyte Lot 399, 10 µM): 0.23 fold | Testosterone-6β- Hydroxylation (CYP3A4; hepatocyte Lot 399, 10 µM): 13 pmol/min/106 cells | fold difference in mean uptake rate (substrate test) (OAT3; OAT3, 1 μM, transporter cells vs control cells): < 2 fold | Inhibition (%) (OAT3; OAT3, 0.1% BSA, 10 μM): no statistically significant inhibition | inhibition at 10 µM (OAT3; human, polarized monolayer of MDCK-II cells expressing OAT3, OAT3, 0.1% BSA, 10 μM): -5.73 ± 8.06% | antagonist effect (5-HT2B(h)): 44.6% | inhibition at 10 µM (H1(h)): 86.1% | antagonist effect (V1a(h)): 27.8% | inhibition at 10 µM (α1A(h)): 82.9% | agonist effect (hGABAA∞1β2γ2): 97.71%
